{
  "source": "patent US20210113492A1",
  "about": "“METHOD FOR INHIBITING PROLIFERATION AND METASTASIS OF CANCER CELLS BY USING NAPHTHOQUINONE DERIVATIVE” (National Tsing Hua University, priority 2019, published 2021)",
  "key": {"[1]": {"tested_on": "human primary glioblastoma cells (U87)", "assay": "MTT survival assay, U87", "format": "cell-based", "conditions": "48 h, read-out: IC50, survival rate", "method": "According to the present invention, Human primary glioblastoma cell line U87 were obtained from the American Type Culture Collection (ATCC® HTB-14™, Manassas, Va., USA) and grown in DMEM medium supplemented with 10% FBS, 1% MEM Non-Essential Amino Acids Solution (Invitrogen) and 1% penicillin/streptomycin (Invitrogen). The incubator was maintained at 5% CO2 and a constant temperature of 37° C., and the culture medium was changed every two days.\nIsoplumbagin (AKOS006277326, acquired from AKos GmbH, Steinen, Germany) was dissolved in dimethyl sulfoxide (DMSO) and added to the medium, so that the final concentration of DMSO was less than 0.1%. The survival rate of isoplumbagin on OC3-IV2, U87, H1299 and PC3 cell lines was determined using the 3-(4,5-dimethylthiazol-2-yl)-2,5-diphenyltetrazolium bromide (MTT; Sigma-Aldrich) assays. 3×10^3 cells/well were seeded in 96-well plates. After incubation for 24 h, cells were treated with isoplumbagin at various concentrations (0, 1, 5, 10, 25, 50 and 100 μM) and incubated for a further 48 h. At the end of treatment, 10 μL 5 mg/mL MTT was added to each well. After incubation at 37° C. for 3 h, medium was removed and DMSO was added to each well to dissolve reduced MTT product formazan. The absorbance of dissolved formazan was measured at 550 nm wavelengths by a spectrophotometer. […]"}, "[2]": {"tested_on": "oral squamous cell carcinoma cells (OC3-IV2)", "assay": "Boyden chamber invasion assay, OC3-IV2", "format": "cell-based, human", "conditions": "5, 7.5 and 10 μM, 24 h, dose dependency (FIG. 2A)", "method": "(§1) Cells were harvested by […] and resuspended in a serum-free medium with 0.1% BSA. Then, […] of cell suspension (2×10^5 cells) was seeded into the upper insert of SPLInsert with Polyethylene terephthalate (PET) membrane (pore size: 8.0 μm) (SPL Lifesciences, Korea) pre-coated with matrigel (BD Biosciences, San Jose, Calif.). The bottom well of 24-well plate of SPLInsert was filled with cell medium containing 10% FBS with different concentrations of isoplumbagin (5, 7.5 and 10 μM, Experimental group of oral squamous cell carcinoma cells (OC3-IV2); 2.5, 5 and 10 μM, Experimental groups of human primary glioblastoma cells (U87), human non-small cell lung carcinoma cells (H1299), human prostate cancer cells (PC3) and human cervical cancer cells (Hela)) or without isoplumbagin (DMSO added). […] Number of cells was counted using Image J. Relative invasion ability was calculated as cell number per area.\n(§2) FIGS. 2A-2E show the inhibitory effect of different doses of isoplumbagin on invasion for oral squamous cell carcinoma cells (OC3-IV2), human primary glioblastoma cells (U87), human non-small cell lung carcinoma cells (H1299), prostate cancer cells (PC3) and cervical cancer cells (Hela) assessed with the Boyden chamber assays. *Compared with solvent control (DMSO). […]"}, "[3]": {"tested_on": "human prostate cancer cells (PC3)", "assay": "Boyden chamber invasion assay, PC3", "format": "cell-based", "conditions": "2.5, 5 and 10 μM, 24 h, dose dependency (FIG. 2D)", "method": "as §1, §2"}, "[4]": {"tested_on": "human cervical cancer cells (Hela)", "assay": "Boyden chamber invasion assay, Hela", "format": "cell-based", "conditions": "2.5, 5 and 10 μM, 24 h, dose dependency (FIG. 2E)", "method": "as §1, §2"}, "NQO1": {"molecular_target": "T1, NQO1 (Homo sapiens, UniProt P15559)", "T1 construct": "endogenous in cells; host or cells: OC3-IV2 (human oral squamous cell carcinoma), cytosolic fraction / lysate supernatant", "T1 sequence (P15559 whole entry)": "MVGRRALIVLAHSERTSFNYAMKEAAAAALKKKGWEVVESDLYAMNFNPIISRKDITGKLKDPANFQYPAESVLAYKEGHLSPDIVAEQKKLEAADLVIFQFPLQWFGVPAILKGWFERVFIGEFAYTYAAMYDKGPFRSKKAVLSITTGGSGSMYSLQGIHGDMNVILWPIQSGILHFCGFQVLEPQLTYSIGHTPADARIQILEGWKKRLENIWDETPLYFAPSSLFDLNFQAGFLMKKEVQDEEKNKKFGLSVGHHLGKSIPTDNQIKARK", "assay": "NQO1 enzymatic activity assay (substrate reduction with NADH and WST1)", "format": "biochemical", "conditions": "cytosolic fractions of OC3-IV2 cells; isoplumbagin 5 μM and 10 μM, menadione 1X and 2X", "method": "FIG. 4 proves that isoplumbagin is a substrate of NQO1. The cytosolic fractions of OC3-IV2 cells were used for the NQO1 enzymatic activity assay. The NQO1 enzyme activity was calculated by measuring the simultaneous reduction of menadione or isoplumbagin with cofactor NADH and WST1 (a highly sensitive tetrazolium reagent) which leads to increased absorbance at 450 nm. NQO1 activity assay kit (#ab184867) was purchased from Abcam (Cambridge, Mass., USA). OC3-IV2 cells were lysed with 1X extraction buffer containing 1 mM phenylmethylsulfonyl fluoride (PMSF) for 15 min on ice, and then centrifuged at 17,000×g at 4° C. for 20 min. The supernatant was collected and then the protein concentration of each sample was determined by BCA assays (Santa Cruz Biotechnology). Diluted sample and reaction buffer were added into 96-wells plate containing menadione (1X and 2X) or different concentrations of isoplumbagin (5 μM and 10 μM) with cofactor NADH and WST1. The absorbance of reduced WST1 was measured at 450 nm wavelengths by a spectrophotometer. Data from three independent experiments are presented as mean ±SEM (*P<0.05 compared with no substrate, paired Student's t-test)."}},
  "data": [
    {"smiles": "CC1=CC(=O)c2cccc(O)c2C1=O", "note": "[isoplumbagin, 5-hydroxy-3-methyl-1,4-naphthoquinone]", "values": [
      {"measurement": "IC50", "setting": "[1]", "value": 0.45, "unit": "µg/mL"},
      {"measurement": "cancer cells migrating through the membrane (invasion)", "setting": "[2]", "value": "decrease significantly"},
      {"measurement": "cancer cells migrating through the membrane (invasion)", "setting": "[3]", "value": "decrease significantly"},
      {"measurement": "cancer cells migrating through the membrane (invasion)", "setting": "[4]", "value": "decrease significantly"},
      {"measurement": "substrate of NQO1 (reduction with NADH and WST1, absorbance at 450 nm)", "setting": "NQO1", "value": "substrates of NQO1"}
    ]}
  ]
}
